Measurements: patent US7795278B2 (sanofi-aventis Deutschland GmbH, priority 2004, dated 2010)
pIC50: −log10 of the molar value.

Target: recombinantly expressed human PARP-1 enzyme (Homo sapiens, UniProt P09874)
Test: PARP enzyme assay (half-maximum inhibitor concentration)
Type: biochemical
Settings: DNA-activated PARP-1, 200 μM NAD, tritium-labeled NAD incorporation, room temperature, 1 hour, pH 8.0
Protocol: Pharmacological Investigations PARP Enzyme Assay
The half-maximum inhibitor concentration is determined by incubating the substances to be tested with the DNA-activated, recombinantly expressed and purified PARP-1 enzyme. Specifically, various concentrations of the test substance are incubated in 50 μl of reaction solution, which contains 50 mM Tris, 5 mM MgCl2, 1 mM DTT, 200 μM NAD, 0.1 mCi/ml tritium-labeled NAD, 0.1 mg/ml DNA, 0.1 mg/ml histones, 2 μg/ml recombinantly expressed human PARP-1 enzyme, pH=8.0, at room temperature for 1 hour. The reaction is stopped by adding 150 μl of 20% trichloroacetic acid, and the radiolabeled protein constituents are precipitated. After incubation on ice for 10 minutes, the labeled, insoluble constituents are separated off through a glass fiber filter and, after washing with 20% trichloroacetic acid three times, the radioactivity incorporated by the PARP-1 enzyme is measured by radioluminescence.
IC-50 values were determined in this way for the following compounds: […]

Sequence of recombinantly expressed human PARP-1 enzyme (P09874 whole entry): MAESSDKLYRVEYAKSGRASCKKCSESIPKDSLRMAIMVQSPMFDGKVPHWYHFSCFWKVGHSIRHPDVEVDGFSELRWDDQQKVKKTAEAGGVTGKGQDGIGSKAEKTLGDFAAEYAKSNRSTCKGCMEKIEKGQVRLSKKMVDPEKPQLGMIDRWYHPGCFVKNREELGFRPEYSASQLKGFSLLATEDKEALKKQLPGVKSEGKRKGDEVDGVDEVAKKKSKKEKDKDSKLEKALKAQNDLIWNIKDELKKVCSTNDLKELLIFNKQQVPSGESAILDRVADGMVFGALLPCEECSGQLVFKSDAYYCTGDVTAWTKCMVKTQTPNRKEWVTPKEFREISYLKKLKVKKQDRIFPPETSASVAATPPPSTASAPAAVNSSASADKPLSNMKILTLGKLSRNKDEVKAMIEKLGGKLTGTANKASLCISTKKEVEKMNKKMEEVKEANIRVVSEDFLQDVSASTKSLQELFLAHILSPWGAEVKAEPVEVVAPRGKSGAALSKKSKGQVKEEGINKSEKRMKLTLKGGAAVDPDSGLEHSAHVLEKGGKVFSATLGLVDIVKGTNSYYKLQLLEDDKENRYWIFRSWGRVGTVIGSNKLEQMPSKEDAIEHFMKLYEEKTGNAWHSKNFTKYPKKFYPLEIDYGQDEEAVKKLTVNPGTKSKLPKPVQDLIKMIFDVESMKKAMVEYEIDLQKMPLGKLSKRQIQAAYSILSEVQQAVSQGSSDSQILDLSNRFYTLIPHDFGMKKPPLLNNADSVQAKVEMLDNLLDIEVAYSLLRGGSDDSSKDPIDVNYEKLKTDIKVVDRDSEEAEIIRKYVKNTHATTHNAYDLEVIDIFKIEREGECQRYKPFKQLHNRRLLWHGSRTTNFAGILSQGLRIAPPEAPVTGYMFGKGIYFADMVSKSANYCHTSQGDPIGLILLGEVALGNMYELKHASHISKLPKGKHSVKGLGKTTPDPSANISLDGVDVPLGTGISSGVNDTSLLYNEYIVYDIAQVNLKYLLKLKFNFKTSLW

SMILES	pIC50
CN(Cc1ccncc1)C(=O)c1cncc(-c2c[nH]c(=O)c3c2CCCC3)c1 [Example 38, N-methyl-5-(1-oxo-1,2,5,6,7,8-hexahydroisoquinolin-4-yl)-N-pyridin-4-ylmethylnicotinamide]	5.50
O=c1[nH]cc(-c2ccc(CNCc3ccccc3)o2)c2c1CCCC2 [Example 79, 4-[5-(benzylaminomethyl)furan-2-yl]-5,6,7,8-tetrahydro-2H-isoquinolin-1-one]	6.82
O=c1[nH]cc(Nc2nc(-c3ccncc3)cs2)c2c1CCCC2 [Example 3, 4-(4-pyridin-4-ylthiazol-2-ylamino)-5,6,7,8-tetrahydro-2H-isoquinolin-1-one]	5.01
Cc1cc(CNC(=O)c2cncc(-c3c[nH]c(=O)c4c3CCCC4)c2)no1 [Example 34, N-(5-methylisoxazol-3-ylmethyl)-5-(1-oxo-1,2,5,6,7,8-hexahydroisoquinolin-4-yl)nicotinamide]	5.46
O=c1[nH]cc(-c2ccc(CN3CCCC3)o2)c2c1CCCC2 [Example 61, 4-(5-pyrrolidin-1-ylmethylfuran-2-yl)-5,6,7,8-tetrahydro-2H-isoquinolin-1-one]	6.96
Cc1[nH]c(=O)c2c(c1-c1ccc(CNCc3cnn(C)c3)o1)CCCC2 [Example 52, 3-methyl-4-(5-{[(1-methyl-1H-pyrazol-4-ylmethyl)amino]methyl}-furan-2-yl)-5,6,7,8-tetrahydro-2H-isoquinolin-1-one]	6.48
Cn1cc(CNCc2ccc(-c3c[nH]c(=O)c4c3CCCC4)o2)cn1 [Example 77, 4-(5-{[(1-methyl-1H-pyrazol-4-ylmethyl)amino]methyl}furan-2-yl)-5,6,7,8-tetrahydro-2H-isoquinolin-1-one]	6.74
CS(=O)(=O)c1ccc(CNC(=O)c2cncc(-c3c[nH]c(=O)c4c3CCCC4)c2)cc1 [Example 42, N-(4-methanesulfonylbenzyl)-5-(1-oxo-1,2,5,6,7,8-hexahydroisoquinolin-4-yl)nicotinamide]	5.99
CC(=O)c1cccc(Nc2c[nH]c(=O)c3c2CCCC3)c1 [Example 15, 4-(3-acetylphenylamino)-5,6,7,8-tetrahydro-2H-isoquinolin-1-one]	6.16
CN(Cc1cccc([N+](=O)[O-])c1)C(=O)c1cncc(-c2c[nH]c(=O)c3c2CCCC3)c1 [Example 32, N-methyl-N-(3-nitrobenzyl)-5-(1-oxo-1,2,5,6,7,8-hexahydroisoquinolin-4-yl)nicotinamide]	6.11
CCCCNCc1ccc(-c2c(C)[nH]c(=O)c3c2CCCC3)o1 [Example 53, 4-(5-butylaminomethylfuran-2-yl)-3-methyl-5,6,7,8-tetrahydro-2H-isoquinolin-1-one]	6.62
O=c1[nH]cc(-c2ccc(CNCN3CCC(N4CCCC4)CC3)o2)c2c1CCCC2 [Example 64, 4-(5-{[(4-pyrrolidin-1-ylpiperidin-1-ylmethyl)amino]methyl}furan-2-yl)-5,6,7,8-tetrahydro-2H-isoquinolin-1-one]	6.47
O=c1[nH]cc(-c2ccc(CNCCN3CCCC3)o2)c2c1CCCC2 [Example 57, 4-{5-[(2-pyrrolidin-1-ylethylamino)-methyl]furan-2-yl}-5,6,7,8-tetrahydro-2H-isoquinolin-1-one]	6.38
Cc1[nH]c(=O)c2c(c1-c1cccnc1)CCCC2 [Example 19, 3-methyl-4-pyridin-3-yl-5,6,7,8-tetrahydro-2H-isoquinolin-1-one]	6.13
O=c1[nH]cc(-c2ccc(CNCc3ccncc3)o2)c2c1CCCC2 [Example 58, 4-(5-{[(pyridin-4-ylmethyl)amino]-methyl}furan-2-yl)-5,6,7,8-tetrahydro-2H-isoquinolin-1-one]	5.90
O=C(NCCc1cccnc1)c1cncc(-c2c[nH]c(=O)c3c2CCCC3)c1 [Example 40, 5-(1-oxo-1,2,5,6,7,8-hexahydroisoquinolin-4-yl)-N-(2-pyridin-3-ylethyl)nicotinamide]	5.33
O=C1OCc2ccc(Nc3c[nH]c(=O)c4c3CCCC4)cc21 [Example 10]	5.84
O=c1[nH]cc(-c2ccc(CNCc3ccccn3)o2)c2c1CCCC2 [Example 62, 4-(5-{[(pyridin-2-ylmethyl)amino]-methyl}furan-2-yl)-5,6,7,8-tetrahydro-2H-isoquinolin-1-one]	5.82
CCN1CCCC1CNC(=O)c1cncc(-c2c[nH]c(=O)c3c2CCCC3)c1 (stereo not drawn) [Example 49, N-(1-ethylpyrrolidin-2-ylmethyl)-5-(1-oxo-1,2,5,6,7,8-hexahydroisoquinolin-4-yl)nicotinamide]	5.29
O=c1[nH]cc(-c2ccc(CN3CCCC3c3ccccn3)o2)c2c1CCCC2 (stereo not drawn) [Example 67, 4-[5-(2-pyridin-2-ylpyrrolidin-1-ylmethyl)furan-2-yl]-5,6,7,8-tetrahydro-2H-isoquinolin-1-one]	6.14
O=C(NCc1ccc([N+](=O)[O-])cc1)c1cncc(-c2c[nH]c(=O)c3c2CCCC3)c1 [Example 28, N-(4-nitrobenzyl)-5-(1-oxo-1,2,5,6,7,8-hexahydroisoquinolin-4-yl)nicotinamide]	6.40

Continued by rising pIC50, values first:

pIC50	SMILES
4.98	O=C(c1cccc(Nc2c[nH]c(=O)c3c2CCCC3)c1)N1CCCC1 [Example 21, 4-[3-(Pyrrolidin-1-carbonyl)phenylamino]-5,6,7,8-tetrahydro-2H-isoquinolin-1-one]
5.41	O=C(NCC1CC(c2ccccc2)=NO1)c1cncc(-c2c[nH]c(=O)c3c2CCCC3)c1 (stereo not drawn) [Example 41, 5-(1-oxo-1,2,5,6,7,8-hexahydroisoquinolin-4-yl)-N-(3-phenyl-4,5-dihydroisoxazol-5-ylmethyl)-nicotinamide]
5.42	CC(=O)Nc1ccc(S(=O)(=O)NCc2ccc(-c3c[nH]c(=O)c4c3CCCC4)o2)cc1 [Example 87, N-(4-{[5-(1-oxo-1,2,5,6,7,8-hexahydroisoquinolin-4-yl)furan-2-ylmethyl]sulfamoyl}phenyl)acetamide]
5.43	O=C(NCCNc1ncccn1)c1cncc(-c2c[nH]c(=O)c3c2CCCC3)c1 [Example 33, 5-(1-oxo-1,2,5,6,7,8-hexahydroisoquinolin-4-yl)-N-[2-(pyrimidin-2-ylamino)ethyl]nicotinamide]
5.60	O=C(NCCc1ccccc1)c1cncc(-c2c[nH]c(=O)c3c2CCCC3)c1 [Example 27, 5-(1-oxo-1,2,5,6,7,8-hexahydroisoquinolin-4-yl)-N-phenethyl-nicotinamide]
5.61	COc1cccc(S(=O)(=O)NCc2ccc(-c3c[nH]c(=O)c4c3CCCC4)o2)c1 [Example 86, 3-methoxy-N-[5-(1-oxo-1,2,5,6,7,8-hexahydroisoquinolin-4-yl)furan-2-ylmethyl]benzenesulfonamide]
5.84	O=c1[nH]cc(-c2ccc(CN3CCN(c4ncccn4)CC3)o2)c2c1CCCC2 [Example 56, 4-[5-(4-pyrimidin-2-ylpiperazin-1-ylmethyl)furan-2-yl]-5,6,7,8-tetrahydro-2H-isoquinolin-1-one]
5.88	O=c1[nH]cc(Nc2cccc(O)c2)c2c1CCCC2 [Example 1, 4-(3-hydroxyphenylamino)-5,6,7,8-tetrahydro-2H-isoquinolin-1-one]
5.89	CCCCNC(=O)c1cccc(Nc2c[nH]c(=O)c3c2CCCC3)c1 [Example 20, N-Butyl-3-(1-oxo-1,2,5,6,7,8-hexahydroisoquinolin-4-ylamino)benzamide]
5.90	COc1ccc(C(=O)NCc2ccc(-c3c[nH]c(=O)c4c3CCCC4)o2)cc1 [Example 83, 4-methoxy-N-[5-(1-oxo-1,2,5,6,7,8-hexahydroisoquinolin-4-yl)furan-2-ylmethyl]benzamide]
5.97	CC(C)CC(=O)NCc1ccc(-c2c[nH]c(=O)c3c2CCCC3)o1 [Example 81, 3-methyl-N-[5-(1-oxo-1,2,5,6,7,8-hexahydroisoquinolin-4-yl)furan-2-ylmethyl]butyramide]
6.10	CS(=O)(=O)c1cccc(Nc2c[nH]c(=O)c3c2CCCC3)c1 [Example 6, 4-(3-methanesulfonylphenyl-amino)-5,6,7,8-tetrahydro-2H-isoquinolin-1-one]
6.21	O=c1[nH]cc(Nc2cccc(CO)c2)c2c1CCCC2 [Example 8, 4-(3-hydroxymethylphenyl-amino)-5,6,7,8-tetrahydro-2H-isoquinolin-1-one]
6.27	O=C(NCc1ccc(-c2c[nH]c(=O)c3c2CCCC3)o1)C(F)(F)F [Example 80, 2,2,2-trifluoro-N-[5-(1-oxo-1,2,5,6,7,8-hexahydroisoquinolin-4-yl)furan-2-ylmethyl]acetamide]
6.29	CC(=O)Nc1ccc(CNCc2ccc(-c3c[nH]c(=O)c4c3CCCC4)o2)cc1 [Example 75, N-[4-({[5-(1-oxo-1,2,5,6,7,8-hexahydroisoquinolin-4-yl)furan-2-ylmethyl]amino}methyl)phenyl]-acetamide]
6.47	O=c1[nH]cc(-c2ccc(CNCc3nc4ccccc4[nH]3)o2)c2c1CCCC2 [Example 68, 4-(5-{[(1H-benzimidazol-2-ylmethyl)amino]methyl}furan-2-yl)-5,6,7,8-tetrahydro-2H-isoquinolin-1-one]
6.62	O=c1[nH]cc(-c2ccc(CN3CCC(O)C3)o2)c2c1CCCC2 (stereo not drawn) [Example 63, 4-[5-(3-hydroxypyrrolidin-1-ylmethyl)furan-2-yl]-5,6,7,8-tetrahydro-2H-isoquinolin-1-one]
7.10	Cc1[nH]c(=O)c2c(c1Nc1cccc(C(=O)N(C)C)c1)CCCC2 [Example 13, N,N-dimethyl-3-(3-methyl-1-oxo-1,2,5,6,7,8-hexahydroisoquinolin-4-ylamino)benzamide]
